Laboratory results published in ChEMBL document CHEMBL1143464, “Trifluoromethyl group as a pharmacophore: effect of replacing a CF3 group on binding and agonist activity of a glucocorticoid receptor ligand” (Bioorg Med Chem Lett, 2005).

Key:
Glucocorticoid receptor [1] = molecular target: T1, Glucocorticoid receptor (Homo sapiens, UniProt P04150); assay: Binding affinity towards glucocorticoid receptor using fluorescence polarization competitive binding assay
T1 sequence (P04150 whole entry): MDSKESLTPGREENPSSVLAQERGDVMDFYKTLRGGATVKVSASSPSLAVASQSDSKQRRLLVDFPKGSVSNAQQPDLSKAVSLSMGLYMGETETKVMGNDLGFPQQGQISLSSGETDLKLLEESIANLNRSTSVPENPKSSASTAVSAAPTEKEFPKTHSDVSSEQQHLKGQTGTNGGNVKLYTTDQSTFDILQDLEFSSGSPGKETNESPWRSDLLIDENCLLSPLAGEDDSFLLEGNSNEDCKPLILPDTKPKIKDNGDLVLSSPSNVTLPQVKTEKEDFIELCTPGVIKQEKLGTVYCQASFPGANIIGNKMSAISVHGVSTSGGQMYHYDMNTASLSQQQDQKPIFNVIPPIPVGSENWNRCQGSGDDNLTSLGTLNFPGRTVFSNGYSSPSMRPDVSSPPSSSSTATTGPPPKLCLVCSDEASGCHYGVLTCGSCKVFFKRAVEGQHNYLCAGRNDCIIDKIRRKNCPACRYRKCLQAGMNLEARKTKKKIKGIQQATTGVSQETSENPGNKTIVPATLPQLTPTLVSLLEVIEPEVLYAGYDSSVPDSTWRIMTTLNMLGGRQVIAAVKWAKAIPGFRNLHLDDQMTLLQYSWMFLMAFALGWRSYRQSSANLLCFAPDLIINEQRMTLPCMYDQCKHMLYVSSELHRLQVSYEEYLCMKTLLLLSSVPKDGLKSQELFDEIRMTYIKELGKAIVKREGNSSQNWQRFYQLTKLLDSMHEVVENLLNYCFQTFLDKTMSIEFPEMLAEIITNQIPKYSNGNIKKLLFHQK

Progesterone receptor = molecular target: T2, Progesterone receptor (Homo sapiens, UniProt P06401); assay: Binding affinity towards progesterone receptor using fluorescence polarization competitive binding assay
T2 sequence (P06401 whole entry): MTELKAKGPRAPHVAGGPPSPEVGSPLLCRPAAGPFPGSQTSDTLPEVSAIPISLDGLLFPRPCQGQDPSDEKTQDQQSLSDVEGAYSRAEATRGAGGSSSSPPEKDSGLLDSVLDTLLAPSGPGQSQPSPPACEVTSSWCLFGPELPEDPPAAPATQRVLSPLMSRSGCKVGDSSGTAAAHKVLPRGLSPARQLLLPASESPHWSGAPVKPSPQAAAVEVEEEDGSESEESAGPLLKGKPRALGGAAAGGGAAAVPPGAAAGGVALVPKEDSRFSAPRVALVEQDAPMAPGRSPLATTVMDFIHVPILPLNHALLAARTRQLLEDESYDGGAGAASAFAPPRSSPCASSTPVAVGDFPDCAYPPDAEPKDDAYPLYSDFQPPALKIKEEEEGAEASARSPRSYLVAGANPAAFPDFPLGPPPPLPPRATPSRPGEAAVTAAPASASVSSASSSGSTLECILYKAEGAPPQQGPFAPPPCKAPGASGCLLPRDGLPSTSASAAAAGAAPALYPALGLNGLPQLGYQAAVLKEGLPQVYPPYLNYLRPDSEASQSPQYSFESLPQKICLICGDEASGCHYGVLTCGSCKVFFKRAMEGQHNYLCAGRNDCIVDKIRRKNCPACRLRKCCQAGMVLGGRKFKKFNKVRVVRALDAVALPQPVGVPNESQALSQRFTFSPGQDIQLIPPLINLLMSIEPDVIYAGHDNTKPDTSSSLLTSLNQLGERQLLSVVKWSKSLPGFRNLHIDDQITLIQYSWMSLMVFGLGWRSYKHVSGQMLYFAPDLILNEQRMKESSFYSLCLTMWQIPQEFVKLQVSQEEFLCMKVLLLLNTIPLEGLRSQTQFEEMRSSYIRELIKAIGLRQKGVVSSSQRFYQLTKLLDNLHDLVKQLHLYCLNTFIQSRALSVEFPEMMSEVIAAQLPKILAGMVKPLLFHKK

Glucocorticoid receptor [2] = molecular target: T1, Glucocorticoid receptor; assay: Effective concentration against inhibition of Dexamethasone induced glucocorticoid receptor transactivation of mouse mammary tumor virus luciferase gene in HeLa cells; format: cell-based
[3] = molecular target: T3, Mineralocorticoid receptor (Homo sapiens, UniProt P08235); assay: Binding affinity towards mineralocorticoid receptor using fluorescence polarization competitive binding assay
T3 sequence (P08235 whole entry): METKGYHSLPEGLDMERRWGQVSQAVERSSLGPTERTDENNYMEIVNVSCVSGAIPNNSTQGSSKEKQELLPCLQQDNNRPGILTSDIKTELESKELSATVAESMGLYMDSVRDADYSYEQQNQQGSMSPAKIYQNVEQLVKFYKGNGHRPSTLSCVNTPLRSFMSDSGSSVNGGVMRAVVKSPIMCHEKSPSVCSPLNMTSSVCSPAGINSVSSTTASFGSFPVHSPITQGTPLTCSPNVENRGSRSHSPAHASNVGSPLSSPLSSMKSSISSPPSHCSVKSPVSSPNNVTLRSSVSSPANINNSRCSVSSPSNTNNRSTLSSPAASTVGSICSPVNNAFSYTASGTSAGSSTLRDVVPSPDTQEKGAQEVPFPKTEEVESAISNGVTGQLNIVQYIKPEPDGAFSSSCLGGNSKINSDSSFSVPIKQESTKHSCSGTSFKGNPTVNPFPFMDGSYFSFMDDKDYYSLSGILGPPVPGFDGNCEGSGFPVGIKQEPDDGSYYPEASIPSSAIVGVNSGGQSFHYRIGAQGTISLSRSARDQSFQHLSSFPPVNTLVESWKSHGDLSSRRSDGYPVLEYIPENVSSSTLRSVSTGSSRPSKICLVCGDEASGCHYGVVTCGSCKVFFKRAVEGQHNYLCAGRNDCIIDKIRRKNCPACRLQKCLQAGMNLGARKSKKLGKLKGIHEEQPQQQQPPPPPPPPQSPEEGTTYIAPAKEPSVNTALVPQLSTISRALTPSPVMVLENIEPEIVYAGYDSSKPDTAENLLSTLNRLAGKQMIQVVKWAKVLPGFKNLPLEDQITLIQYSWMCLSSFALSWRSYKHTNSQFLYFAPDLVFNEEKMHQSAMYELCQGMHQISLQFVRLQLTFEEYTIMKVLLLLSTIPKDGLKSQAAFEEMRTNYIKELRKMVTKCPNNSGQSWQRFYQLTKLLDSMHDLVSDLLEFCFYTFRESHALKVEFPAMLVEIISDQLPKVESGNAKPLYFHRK

Glucocorticoid receptor [4] = molecular target: T1, Glucocorticoid receptor; assay: Effective agonist concentration for transcriptional repression of IL-6 production in IL-1 stimulated human foreskin fibroblasts; format: functional

SMILES	IC50 (Glucocorticoid receptor [1]) [nM]	IC50 (Progesterone receptor) [nM]	EC50 (Glucocorticoid receptor [2]) [nM]	IC50 [3] [nM]	EC50 (Glucocorticoid receptor [4]) [nM]
CC(O)(CC(C)(C)c1ccccc1)C(=O)Nc1ccc2c(c1)COC2=O (stereo unspecified)	370	85	2370	60	–
Cc1noc(=O)c2ccc(NC(=O)C(O)(CC3CCCCC3)CC(C)(C)c3cc(F)ccc3O)cc12 (stereo unspecified)	7	35	120	104	–
CC(C)(C)c1ccc(CC(O)(CC(C)(C)c2ccccc2)C(=O)Nc2ccc3c(c2)COC3=O)cc1 (stereo unspecified)	72	330	760	175	–
CC(C)C(O)(CC(C)(C)c1ccccc1)C(=O)Nc1ccc2c(c1)COC2=O (stereo unspecified)	200	210	620	315	–
CC(C)(CC(O)(Cc1ccc(-c2ccccc2)cc1)C(=O)Nc1ccc2c(c1)COC2=O)c1ccccc1 (stereo unspecified)	740	180	–	–	–
COc1ccc(F)cc1C(C)(C)CC(O)(CNc1ccc2c(c1)COC2=O)Cc1ccccc1 (stereo unspecified)	81	80	610	195	–
COc1ccc(F)cc1C(C)(C)CC(O)(Cc1ccccc1)C(=O)Nc1ccc2c(c1)COC2=O (stereo unspecified)	52	35	–	–	–
CC(C)(CC(O)(Cc1ccccc1)C(=O)Nc1ccc2c(c1)COC2=O)c1ccccc1 (stereo unspecified)	13	30	205	160	–
CC(C)(CC(O)(Cc1ccc2ccccc2c1)C(=O)Nc1ccc2c(c1)COC2=O)c1ccccc1 (stereo unspecified)	110	48	–	–	–
Cc1noc(=O)c2ccc(NC(=O)C(O)(Cc3ccccc3)CC(C)(C)c3ccccc3)cc12 (stereo unspecified)	7	30	–	–	–
CC(C)(CC(O)(Cc1ccccn1)C(=O)Nc1ccc2c(c1)COC2=O)c1ccccc1 (stereo unspecified)	760	400	–	–	–
CC(C)(CC(O)(Cc1cccc(O)c1)C(=O)Nc1ccc2c(c1)COC2=O)c1ccccc1 (stereo unspecified)	120	44	–	–	–
CC(C)(CC(O)(Cc1ccccc1O)C(=O)Nc1ccc2c(c1)COC2=O)c1ccccc1 (stereo unspecified)	61	47	–	–	–
CC(C)(CC(O)(C(=O)Nc1ccc2c(c1)COC2=O)c1ccccc1)c1ccccc1 (stereo unspecified)	460	240	–	–	–
CC(C)(CC(O)C(=O)Nc1ccc2c(c1)COC2=O)c1ccccc1 (stereo unspecified)	> 2000	> 2000	–	–	–
CC(C)(CC(Cc1ccccc1)C(=O)Nc1ccc2c(c1)COC2=O)c1ccccc1 (stereo unspecified)	> 2000	2000	–	–	–
CC(C)(CC(O)(CCc1ccccc1)C(=O)Nc1ccc2c(c1)COC2=O)c1ccccc1 (stereo unspecified)	57	59	–	–	–
CC(C)(CC(O)(Cc1cc(O)cc(O)c1)C(=O)Nc1ccc2c(c1)COC2=O)c1ccccc1 (stereo unspecified)	> 2000	160	–	–	–
CC(C)(CC(O)(CC1CCCCC1)C(=O)Nc1ccc2c(c1)COC2=O)c1ccccc1 (single isomer, unassigned)	9	35	–	–	–
CC(C)(CC(O)(CC1CCCCC1)C(=O)Nc1ccc2c(c1)COC2=O)c1ccccc1 (stereo in doubt)	320	210	–	–	–
CC(C)(CC(O)(CC1CCCCC1)C(=O)Nc1ccc2c(c1)COC2=O)c1ccccc1 (stereo in doubt; 6)	9	19	140	170	–

Other lines, results leading:

IC50 (Glucocorticoid receptor [1]) [nM]	IC50 (Progesterone receptor) [nM]	EC50 (Glucocorticoid receptor [2]) [nM]	IC50 [3] [nM]	EC50 (Glucocorticoid receptor [4]) [nM]	SMILES
52	34	–	–	–	Cc1cccc(CC(O)(CC(C)(C)c2cc(F)ccc2O)C(=O)Nc2ccc3c(c2)COC3=O)c1 (stereo unspecified)
470	51	–	–	–	Cc1cc(C)cc(CC(O)(CC(C)(C)c2cc(F)ccc2O)C(=O)Nc2ccc3c(c2)COC3=O)c1 (stereo unspecified)
6	16	150	30	45	CC(C)(CC(O)(C(=O)Nc1ccc2c(c1)COC2=O)C(F)(F)F)c1cc(F)ccc1O (stereo unspecified)
20	42	130	140	–	CC(C)(CC(O)(CC1CCCCC1)C(=O)Nc1ccc2c(c1)COC2=O)c1cc(F)ccc1O (stereo unspecified)
9	40	–	–	–	Cc1noc(=O)c2ccc(NC(=O)C(O)(CC3CCCCC3)CC(C)(C)c3ccccc3)cc12 (stereo unspecified)
230	85	–	–	–	COc1ccc(F)cc1C(C)(C)CC(O)(C(=O)Nc1ccc2c(c1)COC2=O)C(F)(F)F (stereo unspecified)
60	35	420	190	–	CC(C)(CC(O)(Cc1ccccc1)C(=O)Nc1ccc2c(c1)COC2=O)c1cc(F)ccc1O (stereo unspecified)
79	36	150	215	–	CC(C)(CC(O)(C(=O)Nc1ccc2c(c1)COC2=O)C(F)(F)F)c1ccccc1 (stereo unspecified)
4	22	–	41	10	Cc1noc(=O)c2ccc(NC(=O)C(O)(CC(C)(C)c3cc(F)ccc3O)C(F)(F)F)cc12 (stereo unspecified)
8	32	130	104	–	Cc1noc(=O)c2ccc(NC(=O)C(O)(Cc3ccccc3)CC(C)(C)c3cc(F)ccc3O)cc12 (stereo unspecified)
48	36	–	–	–	Cc1ccccc1CC(O)(CC(C)(C)c1cc(F)ccc1O)C(=O)Nc1ccc2c(c1)COC2=O (stereo unspecified)
